Patent US12187721B2, “Protein tyrosine phosphatase inhibitors” (Array BioPharma Inc., priority 2018, dated 2025)

target: T1, full-length SHP2 (His6-tagged SHP2(2-527)) (Homo sapiens, UniProt Q06124); experiment: SHP2 Enzymatic Assay (fluorescence intensity kinetic assay, DiFMUP hydrolysis); format: biochemical; conditions: not given
T1 construct: His6-tagged SHP2(2-527); His6; made in house; host or cells: E. coli
Protocol: A fluorescence intensity kinetic assay was configured for full-length SHP2 that monitors the amount of 6,8-difluoro-7-hydroxy-4-methylcoumarin (“DiFMU”) formed upon hydrolysis of 6,8-difluoro-4-methylumbelliferyl phosphate (“DiFMUP”) by SHP2. Assay mixtures consisted of 25 mM K^+HEPES, pH 7.4, 0.01% Triton X-100, 1 mM DTT, 50 mM KCl, 100 μg/mL bovine γ-globulin, 50 μM DiFMUP, 1 μM SHP2 activating peptide (LN(pY)IDLDLV(dPEG8)LST(pY)ASINFQK-amide), 1 nM full-length SHP2 (His6-tagged SHP2(2-527), recombinantly expressed in E. coli and purified in-house) and 2% dimethylsulfoxide (“DMSO”) (from compound). […] The assay was run in 384-well, polystyrene, low-volume, non-treated, black microtiter plates (Costar 4511) in a final volume of 20 μL. Low control wells lacked enzyme. The assays were initiated by the addition of a mixture of SHP2 and the activating peptide, and following a 15 second mix on an orbital shaker, were read in kinetic mode for 15 minutes (30 seconds/cycle) at ambient temperature on a PerkinElmer EnVision microplate reader (λEx=355 nm, λEm=460 nm). Initial velocities (slopes of the tangents at t=0) were estimated from exponential fits to the slightly nonlinear progress curves and then were converted to percent of control (“POC”) using the following equation:
[formula] • Where: Xmax Average Uninhibited Controls • Xmin Average Background A 4-parameter logistic model was the fit to the POC data for each compound. From that fit, the IC50 was estimated and is defined as the concentration of compound at which the curve crosses 50 POC.
The reported IC50 in Table 1 may be from a single assay or the mean of multiple assays.

T1 sequence (Q06124 2-527): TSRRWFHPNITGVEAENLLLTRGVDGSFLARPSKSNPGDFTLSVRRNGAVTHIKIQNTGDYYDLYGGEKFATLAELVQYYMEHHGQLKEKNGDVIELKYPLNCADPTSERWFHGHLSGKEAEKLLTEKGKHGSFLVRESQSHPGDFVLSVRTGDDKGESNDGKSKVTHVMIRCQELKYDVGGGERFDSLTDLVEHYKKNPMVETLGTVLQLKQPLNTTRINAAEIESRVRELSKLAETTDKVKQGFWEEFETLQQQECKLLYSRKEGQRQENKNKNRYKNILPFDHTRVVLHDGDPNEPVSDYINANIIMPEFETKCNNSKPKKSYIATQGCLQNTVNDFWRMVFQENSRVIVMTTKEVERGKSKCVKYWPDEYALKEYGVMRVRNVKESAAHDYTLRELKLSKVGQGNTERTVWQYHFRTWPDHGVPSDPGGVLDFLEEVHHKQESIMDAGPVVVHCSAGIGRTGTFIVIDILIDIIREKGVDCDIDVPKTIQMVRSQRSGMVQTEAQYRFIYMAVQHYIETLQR

Row | Compound | IC50
1 | COc1cccc(-c2ccc3nc(N4CCC(C)(N)CC4)cnc3n2)c1Cl [Example 37, 1-(6-(2-chloro-3-methoxyphenyl)pyrido[2,3-b]pyrazin-2-yl)-4-methylpiperidin-4-amine] | 1100 nM
2 | C[C@@H]1OCC2(CCN(c3cnc4nc(-c5cccc(Cl)c5Cl)ccc4n3)CC2)[C@@H]1N [Example 39, (3S,4S)-8-(6-(2,3-dichlorophenyl)pyrido[2,3-b]pyrazin-2-yl)-3-methyl-2-oxa-8-azaspiro[4.5]decan-4-amine] | 320 nM
3 | CC1(N)CCN(c2cnc3nc(Sc4nccn5nccc45)ccc3n2)CC1 [Example 40, 4-methyl-1-(6-(pyrazolo[1,5-a]pyrazin-4-ylthio)pyrido[2,3-b]pyrazin-2-yl)piperidin-4-amine] | 440 nM
4 | NCC1(O)CCN(c2cnc3nc(Sc4ccnc(N)c4Cl)ccc3n2)CC1 [Example 42, 1-(6-((2-amino-3-chloropyridin-4-yl)thio)pyrido[2,3-b]pyrazin-2-yl)-4-(aminomethyl)piperidin-4-ol] | 95 nM
5 | Nc1nccc(Sc2ccc3nc(N4CCC(N)(CO)CC4)cnc3n2)c1Cl [Example 43, (4-amino-1-(6-((2-amino-3-chloropyridin-4-yl)thio)pyrido[2,3-b]pyrazin-2-yl)piperidin-4-yl)methanol] | 100 nM
6 | COc1nccc(Sc2ccc3nc(N4CCC(N)(CO)CC4)cnc3n2)c1Cl [Example 44, (4-amino-1-(6-((3-chloro-2-methoxypyridin-4-yl)thio)pyrido[2,3-b]pyrazin-2-yl)piperidin-4-yl)methanol] | 120 nM
7 | NC1(CO)CCN(c2cnc3nc(Sc4ccnc(N5CCCC5)c4Cl)ccc3n2)CC1 [Example 45, (4-amino-1-(6-((3-chloro-2-(pyrrolidin-1-yl)pyridin-4-yl)thio)pyrido[2,3-b]pyrazin-2-yl)piperidin-4-yl)methanol] | 92 nM
8 | CC1(N)CCN(c2cnc3nc(-c4ccnc(N5CC[C@@H](O)C5)c4Cl)ccc3n2)CC1 [Example 46, (R)-1-(4-(2-(4-amino-4-methylpiperidin-1-yl)pyrido[2,3-b]pyrazin-6-yl)-3-chloropyridin-2-yl)pyrrolidin-3-ol] | 2900 nM
9 | CC1(N)CCN(c2cnc3nc(-c4ccnc(NCCO)c4Cl)ccc3n2)CC1 [Example 47, 2-((4-(2-(4-amino-4-methylpiperidin-1-yl)pyrido[2,3-b]pyrazin-6-yl)-3-chloropyridin-2-yl)amino)ethan-1-ol] | 6000 nM
10 | CC1(N)CCN(c2cnc3nc(Sc4cccc5ccncc45)ccc3n2)CC1 [Example 48, 1-(6-(isoquinolin-8-ylthio)pyrido[2,3-b]pyrazin-2-yl)-4-methylpiperidin-4-amine] | 460 nM
11 | CC1(N)CCN(c2cnc3nc(Sc4ccnc(N5CCCC5)c4Cl)ccc3n2)CC1 [Example 49, 1-(6-((3-chloro-2-(pyrrolidin-1-yl)pyridin-4-yl)thio)pyrido[2,3-b]pyrazin-2-yl)-4-methylpiperidin-4-amine] | 63 nM
12 | CC1(N)CCN(c2cnc3nc(-c4cccc5ccncc45)ccc3n2)CC1 [Example 50, 1-(6-(isoquinolin-8-yl)pyrido[2,3-b]pyrazin-2-yl)-4-methylpiperidin-4-amine] | 9000 nM
13 | Nc1nccc(Sc2ccc3nc(N4CCC[C@H](N)CC4)cnc3n2)c1Cl [Example 51, (S)-1-(6-((2-amino-3-chloropyridin-4-yl)thio)pyrido[2,3-b]pyrazin-2-yl)azepan-4-amine] | 65 nM
14 | COCC1(N)CCN(c2cnc3nc(Sc4ccnc(N)c4Cl)ccc3n2)CC1 [Example 53, 4-((2-(4-amino-4-(methoxymethyl)piperidin-1-yl)pyrido[2,3-b]pyrazin-6-yl)thio)-3-chloropyridin-2-amine] | 123 nM
15 | Nc1nccc(Sc2ccc3nc(N4CCC5(CC4)CNC5)cnc3n2)c1Cl [Example 54, 4-((2-(2,7-diazaspiro[3.5]nonan-7-yl)pyrido[2,3-b]pyrazin-6-yl)thio)-3-chloropyridin-2-amine] | 60 nM
16 | Nc1nccc(Sc2ccc3nc(N4CCC5(CCN5)CC4)cnc3n2)c1Cl [Example 55, 4-((2-(1,7-diazaspiro[3.5]nonan-7-yl)pyrido[2,3-b]pyrazin-6-yl)thio)-3-chloropyridin-2-amine] | 121 nM
17 | Nc1nccc(Sc2ccc3nc(N4[C@@H]5CCC[C@H]4CC(N)C5)cnc3n2)c1Cl (stereo partly drawn) [Example 56, (1R,5S)-9-(6-((2-amino-3-chloropyridin-4-yl)thio)pyrido[2,3-b]pyrazin-2-yl)-9-azabicyclo[3.3.1]nonan-3-amine] | 42 nM
18 | Nc1nccc(Sc2ccc3nc(N4C[C@H]5C[C@H](N)[C@@H](C4)O5)cnc3n2)c1Cl [Example 58, (1R,5R,6S)-3-(6-((2-amino-3-chloropyridin-4-yl)thio)pyrido[2,3-b]pyrazin-2-yl)-8-oxa-3-azabicyclo[3.2.1]octan-6-amine] | 153 nM
19 | N[C@H]1C[C@@H]2CN(c3cnc4nc(Sc5cccc(Cl)c5Cl)ccc4n3)C[C@H]1O2 [Example 59, (1R,5R,6S)-3-(6-((2,3-dichlorophenyl)thio)pyrido[2,3-b]pyrazin-2-yl)-8-oxa-3-azabicyclo[3.2.1]octan-6-amine] | 405 nM
20 | CC(C)(N)C1CCN(c2cnc3nc(Sc4ccnc(N)c4Cl)ccc3n2)CC1 [Example 60, 4-((2-(4-(2-aminopropan-2-yl)piperidin-1-yl)pyrido[2,3-b]pyrazin-6-yl)thio)-3-chloropyridin-2-amine] | 245 nM
21 | CC(C)(N)C1CCN(c2cnc3nc(Sc4cccc(Cl)c4Cl)ccc3n2)CC1 [Example 61, 2-(1-(6-((2,3-dichlorophenyl)thio)pyrido[2,3-b]pyrazin-2-yl)piperidin-4-yl)propan-2-amine] | 1570 nM
22 | NCC1CN(c2cnc3nc(Sc4ccnc(N)c4Cl)ccc3n2)CCO1 (stereo not drawn) [Example 62, 4-((2-(2-(aminomethyl)morpholino)pyrido[2,3-b]pyrazin-6-yl)thio)-3-chloropyridin-2-amine] | 165 nM
23 | NCC1CN(c2cnc3nc(Sc4cccc(Cl)c4Cl)ccc3n2)CCO1 (stereo not drawn) [Example 63, (4-(6-((2,3-dichlorophenyl)thio)pyrido[2,3-b]pyrazin-2-yl)morpholin-2-yl)methanamine] | 280 nM
24 | NCC1CN(c2cnc3nc(-c4cccc(Cl)c4Cl)ccc3n2)CCO1 (stereo not drawn) [Example 64, (4-(6-(2,3-dichlorophenyl)pyrido[2,3-b]pyrazin-2-yl)morpholin-2-yl)methanamine] | 730 nM
25 | NCC1CN(c2cnc3nc(-c4ccccc4)ccc3n2)CCO1 (stereo not drawn) [Example 65, (4-(6-phenylpyrido[2,3-b]pyrazin-2-yl)morpholin-2-yl)methanamine] | 5760 nM
26 | C[C@@H]1OCC2(CCN(c3cnc4nc(-c5ccccc5)ccc4n3)CC2)[C@@H]1N [Example 66, (3S,4S)-3-methyl-8-(6-phenylpyrido[2,3-b]pyrazin-2-yl)-2-oxa-8-azaspiro[4.5]decan-4-amine] | 2750 nM
27 | C[C@@H]1OCC2(CCN(c3cnc4nc(Sc5cc(N)nc(Cl)c5Cl)ccc4n3)CC2)[C@@H]1N [Example 68, (3S,4S)-8-(6-((6-amino-2,3-dichloropyridin-4-yl)thio)pyrido[2,3-b]pyrazin-2-yl)-3-methyl-2-oxa-8-azaspiro[4,5]decan-4-amine] | 69 nM
28 | C[C@@H]1OCC2(CCN(c3cnc4nc(N5CCCc6ccccc65)ccc4n3)CC2)[C@@H]1N [Example 69, (3S,4S)-8-(6-(3,4-dihydroquinolin-1(2H)-yl)pyrido[2,3-b]pyrazin-2-yl)-3-methyl-2-oxa-8-azaspiro[4,5]decan-4-amine] | 79 nM
29 | C[C@@H]1OCC2(CCN(c3cnc4nc(N5CCNc6ccccc65)ccc4n3)CC2)[C@@H]1N [Example 70, (3S,4S)-8-(6-(3,4-dihydroquinoxalin-1(2H)-yl)pyrido[2,3-b]pyrazin-2-yl)-3-methyl-2-oxa-8-azaspiro[4.5]decan-4-amine] | 5970 nM

same assay, conditions: full-length SHP2 with 1 μM activating peptide, 50 μM DiFMUP; single assay or mean of multiple assays; read-out: Biological Example 1 IC50

Row | Compound | IC50
30 | CC1(N)CCN(c2cnc3nc(Sc4cccc(C#N)c4Cl)ccc3n2)CC1 [Example 35, 3-((2-(4-amino-4-methylpiperidin-1-yl)pyrido[2,3-b]pyrazin-6-yl)thio)-2-chlorobenzonitrile] | 270 nM
31 | CC1(N)CCN(c2cnc3nc(Sc4cccn5nccc45)ccc3n2)CC1 [Example 36, 4-methyl-1-(6-(pyrazolo[1,5-a]pyridin-4-ylthio)pyrido[2,3-b]pyrazin-2-yl)piperidin-4-amine] | 400 nM
32 | CC1(N)CCN(c2cnc3nc(-c4cccc5ccccc45)ccc3n2)CC1 [Example 38, 4-methyl-1-(6-(naphthalen-1-yl)pyrido[2,3-b]pyrazin-2-yl)piperidin-4-amine] | 290 nM
33 | Nc1nccc(Sc2ccc3nc(N4[C@H]5CC[C@H]4CC(N)C5)cnc3n2)c1Cl (stereo partly drawn) [Example 52, (1R,3s,5S)-8-(6-((2-amino-3-chloropyridin-4-yl)thio)pyrido[2,3-b]pyrazin-2-yl)-8-azabicyclo[3.2.1]octan-3-amine] | 70 nM
